This assay relates to human iPS cells. Briefly: survival rate on ROCK inhibitor (+) versus (-) cultivation after thawing. In kind it is cell-based. Particulars: 10 μM Y-27632 for two days then three days without; rapid thawing with warm culture medium; ROCK inhibitor (-) cultivation about 30%. As to the method: Cultivation and freezing in the stem cell preservation method were carried out by procedures similar to those of Embodiment 2. Regarding thawing, after a warm culture medium was used to conduct rapid thawing, difference of survival rate was measured depending on whether the ROCK inhibitor 10 μM Y-27632 was added or not. Where the inhibitor was added, in the presence of Y-27632, cultivation was performed for two days, thereafter, cultivation was performed additionally for three days in a culture medium free of Y-27632. On the other hand, where no inhibitor was added, cultivation was performed for five days in a normal culture medium. On both the cultivation, a survival rate was measured according to the method described in Embodiment 2.

Regarding `C[C@@H](N)[C@H]1CC[C@H](C(=O)Nc2ccncc2)CC1` [ROCK inhibitor, Y-27632], the survival rate result is recorded as “about 120%”.

Values taken from patent US20160021873A1, “STEM CELL PRESERVATION MEDIUM, STEM CELL PRESERVATION METHOD, AND STEM CELL PRESERVATION SYSTEM” (KYOKUTO PHARMACEUTICAL INDUSTRIAL CO., LTD., priority 2012, published 2016).
